Experiment [1] concerns the target T1, human muscarinic M1 receptor (Homo sapiens, UniProt P11229).
T1 sequence (P11229 1-460): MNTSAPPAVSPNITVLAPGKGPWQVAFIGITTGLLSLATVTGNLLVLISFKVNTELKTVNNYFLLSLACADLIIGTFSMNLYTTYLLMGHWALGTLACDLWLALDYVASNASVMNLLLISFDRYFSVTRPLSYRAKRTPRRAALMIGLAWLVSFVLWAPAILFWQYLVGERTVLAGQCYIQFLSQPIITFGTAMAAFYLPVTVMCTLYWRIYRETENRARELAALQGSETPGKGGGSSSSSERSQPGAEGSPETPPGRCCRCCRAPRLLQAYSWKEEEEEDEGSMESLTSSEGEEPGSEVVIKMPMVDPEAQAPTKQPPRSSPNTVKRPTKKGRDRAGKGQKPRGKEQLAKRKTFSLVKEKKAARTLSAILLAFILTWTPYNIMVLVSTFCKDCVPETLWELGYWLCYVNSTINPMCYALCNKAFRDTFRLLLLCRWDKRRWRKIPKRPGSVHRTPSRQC
Put plainly: Alphascreen Surefire phospho-ERK1/2 functional assay, M1. The settings on record: for EC50: read-out: pEC50 M1 (converted); for Emax: CHO, read-out: % Emax cf. ACh, M1, CHO cells stably expressing human M1; for Emax / % Emax cf. ACh, M1: relative to ACh. Format: cell-based.

Experiment [2] addresses T2, human muscarinic M4 receptor (Homo sapiens, UniProt P08173).
T2 construct: expressed in transfected cells
T2 sequence (P08173 1-479): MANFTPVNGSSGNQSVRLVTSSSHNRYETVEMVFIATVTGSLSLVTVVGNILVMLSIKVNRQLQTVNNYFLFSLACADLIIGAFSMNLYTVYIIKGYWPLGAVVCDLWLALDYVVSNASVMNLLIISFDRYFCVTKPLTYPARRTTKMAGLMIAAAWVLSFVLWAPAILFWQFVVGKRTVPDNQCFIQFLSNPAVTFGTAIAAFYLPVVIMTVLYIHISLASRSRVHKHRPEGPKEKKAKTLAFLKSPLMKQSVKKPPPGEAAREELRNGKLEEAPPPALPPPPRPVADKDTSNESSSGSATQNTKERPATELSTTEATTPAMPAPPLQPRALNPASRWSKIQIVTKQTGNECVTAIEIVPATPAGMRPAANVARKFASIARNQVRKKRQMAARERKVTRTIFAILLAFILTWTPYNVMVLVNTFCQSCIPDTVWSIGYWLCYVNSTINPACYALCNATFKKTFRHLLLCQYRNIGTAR
Put plainly: Alphascreen Surefire phospho-ERK1/2 functional assay, M4. Format: cell-based. The settings on record: for EC50 / % Emax cf. ACh, M4: CHO cells stably expressing human M4; for EC50: phospho-ERK1/2, * = variable results, read-out: pEC50 M4 (converted); for Emax: CHO, read-out: % Emax cf. ACh, M4, CHO cells stably expressing human M4; for Emax / % Emax cf. ACh, M4: relative to ACh.

The target of experiment [3] is human muscarinic M3 receptor (Homo sapiens, UniProt P20309). Description: Alphascreen Surefire phospho-ERK1/2 functional assay, M3. The settings on record: for Emax: CHO, read-out: % Emax cf. ACh, M3, CHO cells stably expressing human M3; for EC50: pEC50 M3, CHO cells stably expressing human M3. (Alpha assays give light when donor and acceptor beads are brought close together.)

The target of experiment [4] is T3, human muscarinic M2 receptor (Homo sapiens, UniProt P08172).
T3 sequence (P08172 1-466): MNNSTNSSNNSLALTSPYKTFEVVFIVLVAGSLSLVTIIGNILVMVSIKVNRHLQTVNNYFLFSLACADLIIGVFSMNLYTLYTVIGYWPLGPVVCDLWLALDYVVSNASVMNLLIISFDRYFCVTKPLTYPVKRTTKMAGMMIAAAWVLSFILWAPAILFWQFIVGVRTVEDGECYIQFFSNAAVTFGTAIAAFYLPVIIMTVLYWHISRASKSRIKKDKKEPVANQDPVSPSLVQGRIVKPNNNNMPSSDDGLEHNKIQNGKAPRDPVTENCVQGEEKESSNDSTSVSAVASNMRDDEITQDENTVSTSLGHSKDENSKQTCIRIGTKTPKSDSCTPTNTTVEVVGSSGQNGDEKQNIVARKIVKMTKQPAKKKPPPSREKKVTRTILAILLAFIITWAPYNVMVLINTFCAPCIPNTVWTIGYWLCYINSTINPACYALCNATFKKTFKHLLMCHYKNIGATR
Description: Alphascreen Surefire phospho-ERK1/2 functional assay, M2. The settings on record: for Emax: CHO, read-out: % Emax cf. ACh, M2, CHO cells stably expressing human M2.

Setting [5] is: CHO cells stably expressing human M1, phospho-ERK1/2, * = variable results.
Where [6] appears, read: phospho-ERK1/2, * = variable results.
Setting [7] is: CHO cells stably expressing human M1.

Molecules are shown by their SMILES.

Sequence of human muscarinic M3 receptor (P20309 whole entry): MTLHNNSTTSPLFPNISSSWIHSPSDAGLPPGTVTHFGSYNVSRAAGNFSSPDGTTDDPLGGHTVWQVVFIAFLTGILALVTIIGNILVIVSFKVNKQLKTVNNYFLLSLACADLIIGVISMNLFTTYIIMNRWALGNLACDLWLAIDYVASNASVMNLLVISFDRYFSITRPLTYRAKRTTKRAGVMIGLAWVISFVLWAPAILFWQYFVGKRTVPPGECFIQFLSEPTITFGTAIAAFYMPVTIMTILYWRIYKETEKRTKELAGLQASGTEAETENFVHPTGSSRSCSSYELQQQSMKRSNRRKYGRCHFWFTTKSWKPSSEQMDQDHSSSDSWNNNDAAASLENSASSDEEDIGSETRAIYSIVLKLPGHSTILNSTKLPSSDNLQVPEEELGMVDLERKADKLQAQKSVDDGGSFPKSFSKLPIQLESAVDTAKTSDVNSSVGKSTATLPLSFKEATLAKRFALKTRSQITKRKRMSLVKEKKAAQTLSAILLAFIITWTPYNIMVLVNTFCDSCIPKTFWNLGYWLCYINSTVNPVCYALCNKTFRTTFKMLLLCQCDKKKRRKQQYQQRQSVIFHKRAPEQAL

Broadly, the Emax is the maximal effect, on the per cent scale that the assay sets. For `CCOC(=O)N1CCC2(CC(N3CCC([C@@H]4CCCN4C(=O)CC(F)(F)F)CC3)C2)C1` (single isomer, unassigned) [2-53 Isomer 2], the EC50 in experiment [1] (setting [5]) was 79.4 nM; in experiment [2], 7.94 nM; in experiment [3] (setting [6]), 6310 nM; in experiment [4], > 20000 nM. The Emax in experiment [1] is 109%; in experiment [2], 126%; in experiment [3] (relative to ACh) it was 21%; in experiment [4] (relative to ACh) it was 10%.
`CCOC(=O)N1CCC2(CC(N3CCC([C@@H]4CCCN4CCF)CC3)C2)C1` (single isomer, unassigned) [2-68 Isomer 2]: the EC50 is 1000 nM in experiment [1] (setting [5]), 63.1 nM in experiment [2], > 20000 nM in experiment [3] (setting [6]) and > 20000 nM in experiment [4]. In addition, the Emax in experiment [1] came out at 32%; in experiment [2], 73%; in experiment [3] (relative to ACh), 6%; in experiment [4] (relative to ACh), 4%.
Turning to `CCOC(=O)N1CCC2(CC(N3CCC([C@@H]4CCCN4CC(F)(F)F)CC3)C2)C1` (single isomer, unassigned) [2-69 Isomer 2], the EC50 in experiment [1] (setting [5]) is 398 nM; in experiment [2], 12.6 nM; in experiment [3] (setting [6]), > 20000 nM; in experiment [4], > 20000 nM. Moreover, the Emax worked out at 87% in experiment [1], 110% in experiment [2], 2% in experiment [3] (relative to ACh) and 3% in experiment [4] (relative to ACh).
Regarding `O=C(OCCF)N1CCC2(CC(N3CCC(c4ccc[nH]c4=O)CC3)C2)C1` (single isomer, unassigned) [3-3 Isomer 2, 2-fluoroethyl 2-[4-(2-oxo-1,2-dihydropyridin-3-yl)piperidin-1-yl]-6-azaspiro[3.4]octane-6-carboxylate], the EC50 was 25.1 nM in experiment [1] (setting [5]), 6.31 nM in experiment [2], > 20000 nM in experiment [3] (setting [6]) and 10000 nM in experiment [4]. Besides, the Emax worked out at 81% in experiment [1], 106% in experiment [2], 56% in experiment [3] (relative to ACh) and 50% in experiment [4] (relative to ACh).
On to `CCOC(=O)N1CCC2(CC(N3CCC(c4nccc(N)n4)CC3)C2)C1` (single isomer, unassigned) [3-9 Isomer 2, ethyl 2-[4-(4-aminopyrimidin-2-yl)piperidin-1-yl]-6-azaspiro[3.4]octane-6-carboxylate], for which the EC50 was 251 nM in experiment [1] (setting [5]), 25.1 nM in experiment [2], > 20000 nM in experiment [3] (setting [6]) and > 20000 nM in experiment [4]. Also, the Emax in experiment [1] was 103%; in experiment [2], 96%; in experiment [3] (relative to ACh), 4%; in experiment [4] (relative to ACh), 2%.
As to `CCOC(=O)N1CCC2(CC(N3CCC(c4nc(Cl)c(Cl)n4C)CC3)C2)C1` (single isomer, unassigned) [1-17 Isomer 2, ethyl 2-[4-(4,5-dichloro-1-methyl-1H-imidazol-2-yl)piperidin-1-yl]-6-azaspiro[3.4]octane-6-carboxylate], the EC50 in experiment [1] (setting [5]) is 631 nM; in experiment [2] it was 63.1 nM; in experiment [3] (setting [6]), > 20000 nM; in experiment [4] it was > 20000 nM. For the same molecule, the Emax in experiment [1] came out at 53%; in experiment [2], 90%; in experiment [3] (relative to ACh), 0%; in experiment [4] (relative to ACh) it was 14%.
For `CCOC(=O)N1CCC2(CC(N3CCC(N4CCC(F)(F)CC4)CC3)C2)C1` (single isomer, unassigned) [4-14 Isomer 2, ethyl 2-(4,4-difluoro-1,4′-bipiperidin-1′-yl)-6-azaspiro[3.4]octane-6-carboxylate], the EC50 in experiment [1] (setting [5]) was 200 nM; in experiment [2], 20 nM; in experiment [3] (setting [6]), > 20000 nM; in experiment [4] it was > 20000 nM. The Emax was determined as 28% in experiment [1], 48% in experiment [2], 0% in experiment [3] (relative to ACh) and 55% in experiment [4] (relative to ACh).
Take `CCOC(=O)N1CCC2(CC(N3CCC(N4CCCNC4=O)CC3)C2)C1` (single isomer, unassigned) [4-8 Isomer 1, ethyl 2-[4-(2-oxotetrahydropyrimidin-1(2H)-yl)piperidin-1-yl]-6-azaspiro[3.4]octane-6-carboxylate]: the EC50 is 501 nM in experiment [1] (setting [5]), 63.1 nM in experiment [2], > 20000 nM in experiment [3] (setting [6]) and > 20000 nM in experiment [4]. For the same molecule, the Emax in experiment [1] worked out at 42%; in experiment [2] it was 74%; in experiment [3] (relative to ACh), 8%; in experiment [4] (relative to ACh), 3%.
Regarding `CCOC(=O)N1CCC2(CC(N3CCC(n4ccc(C)n4)CC3)C2)C1` (single isomer, unassigned) [1-44 Isomer 2, ethyl 2-[4-(3-methyl-1H-pyrazol-1-yl)piperidin-1-yl]-6-azaspiro[3.4]octane-6-carboxylate], the EC50 is 79.4 nM in experiment [1] (setting [5]), 6.31 nM in experiment [2], > 20000 nM in experiment [3] (setting [6]) and > 20000 nM in experiment [4]. Also, the Emax in experiment [1] is 126%; in experiment [2], 126%; in experiment [3] (relative to ACh), 7%; in experiment [4] (relative to ACh), 80%.
`CCOC(=O)N1CCC2(CC(N3CCC([C@@H]4CCCN4C(=O)N(C)CC(F)(F)F)CC3)C2)C1` (single isomer, unassigned) [2-55 Isomer 2]: the “pEC50 M1” value in experiment [1] (setting [5]) is on record as < 4.7. In addition, the “% Emax cf. ACh, M1” value in experiment [1] (setting [7]) is 7%. The EC50 in experiment [2] was 25.1 nM; in experiment [3] (setting [6]) it was > 20000 nM; in experiment [4], > 20000 nM. Moreover, in experiment [2], the “% Emax cf. ACh, M4” value was determined as 52%. Further, the Emax in experiment [3] (relative to ACh) came out at 12%; in experiment [4] (relative to ACh), 22%.
On to `CCOC(=O)N1CCC2(CC(N3CCC(c4ccnn4CC)CC3)C2)C1` (single isomer, unassigned) [1-47 Isomer 2, ethyl 2-[4-(1-ethyl-1H-pyrazol-5-yl)piperidin-1-yl]-6-azaspiro[3.4]octane-6-carboxylate], for which the EC50 in experiment [1] (setting [5]) was > 20000 nM; in experiment [2], 15.8 nM; in experiment [3] (setting [6]) it was > 20000 nM; in experiment [4], ≥ 20000 nM. The Emax amounted to 7% in experiment [1], 81% in experiment [2], 19% in experiment [3] (relative to ACh) and 82% in experiment [4] (relative to ACh).
As to `CCOC(=O)N1CCC2(CC(N3CCC(C4c5ccccc5CN4C(=O)NC)CC3)C2)C1` (single isomer, unassigned) [2-76 Isomer 2, ethyl 2-(4-(2-(methylcarbamoyl)-isoindolin-1-yl)piperidin-1-yl)-6-azaspiro[3.4]octane-6-carboxylate], the figures for the EC50 in experiment [1] (setting [5]) and in experiment [2] were 50.1 nM and 12.6 nM, respectively. In experiment [1] (setting [7]), the “% Emax cf. ACh, M1” value was determined as 88%. Further, in experiment [2], the “% Emax cf. ACh, M4” value was found to be 107%. In addition, in experiment [3] (CHO cells stably expressing human M3, phospho-ERK1/2, * = variable results), the “pEC50 M3” value was < 4.7. In experiment [3] (CHO cells stably expressing human M3, relative to ACh), the “% Emax cf. ACh, M3” value was 14%. In addition, the “pEC50 M2” value in experiment [4] (CHO cells stably expressing human M2, phospho-ERK1/2, * = variable results) is recorded as < 4.7. Moreover, the “% Emax cf. ACh, M2” value in experiment [4] (CHO cells stably expressing human M2, relative to ACh) turned out to be 16%.
Consider `CCOC(=O)N1CCC2(CC(N3CCC([C@@H]4CCCN4C(=O)OC)CC3)C2)C1` (single isomer, unassigned) [2-12 Isomer 2], for which the EC50 is > 20000 nM in experiment [1] (setting [5]), 10 nM in experiment [2], > 20000 nM in experiment [3] (setting [6]) and > 20000 nM in experiment [4]. Moreover, the Emax in experiment [1] was 9%; in experiment [2] it was 57%; in experiment [3] (relative to ACh) it was 6%; in experiment [4] (relative to ACh), 9%.

Values taken from patent publication US9926297B2, “Bicyclic AZA compounds as muscarinic M1 receptor and/or M4 receptor agonists” (Heptares Therapeutics Limited, priority 2014, dated 2018).
